Values joined by “and” are separate entries in the source; they are usually repeats but may differ in a detail not shown here. Equal values may be shown once.
Tested on: human bone marrow MSC
Assay: Microarray gene expression analysis of MSC (Illumina Human HT12 Expression BeadChip)
Format: cell-based
Settings: Tre(+) 250 μg/mL, 24 h
Description: Human bone marrow MSC were expanded and seeded into six (6) T225 flasks using standard growth medium (Table 1). At 95-99% confluency, cells were thoroughly washed with PBS. Three (3) flasks were replenished with basal media containing 250 μg/mL treprostinil, (+)Tre, and the remaining three (3) flasks were replenished with unsupplemented basal media, (−)Tre. After 24 hours of culture, representative images were captured from (+) Tre and (−) Tre cultures. Conditioned media was collected from each replicate, divided into two samples of appropriate volumes, and analyzed separately for: 1) secreted proteins (Myriad RBM InflammationMAP® 1.0) and 2) exosome RNA content. Cells were lysed directly from culture flasks, processed for total RNA isolation, and analyzed for gene expression by microarray (Illumina Human HT12 Expression BeadChip). Microarray gene expression analysis was also performed on MSC from cultures without (−) or with (+) 250 ug/mL treprostinil. Three (3) biological replicates from each condition were analyzed. Of the 77,612 sequences identified among all replicates, only 24,273 were detected above the arbitrary background of 50 counts. 2,984 RNA sequences were unique to Tre(−) cultures, while 1,781 RNA sequences were unique to Tre(+) cultures (panel A). Genes detected in both conditions were further analyzed for differential expression (panel). […] Genes that are expressed only in Tre(−) cultures (that is to say, completely turned off in the Tre(+) cultures) are shown in Table 5.

## CCCCC[C@H](O)CC[C@@H]1[C@H]2Cc3cccc(OCC(=O)O)c3C[C@H]2C[C@H]1O [treprostinil]
  ASPM (NM_018136) expression, Rep 1-3: 20 counts and 27 counts and 30 counts
  ATF3 (NM_001030287) expression, Rep 1-3: 1001 counts and 1579 counts and 1041 counts
  ATP6V0D2 (NM_152565) expression, Rep 1-3: 547 counts and 893 counts and 499 counts
  BMP6 (NM_001718) expression, Rep 1-3: 1210 counts and 1581 counts and 1181 counts
  C11orf96 (NM_001145033) expression, Rep 1-3: 2050 counts and 2381 counts and 1885 counts
  C13orf33 (NM_032849) expression, Rep 1-3: 17304 counts and 24329 counts and 16255 counts
  CALD1 (NM_033140) expression, Rep 1-3: 0 counts
  CD55 (NM_000574) expression, Rep 1-3: 7472 counts and 9108 counts and 6555 counts
  CD55 (NM_001114752) expression, Rep 1-3: 2497 counts and 3119 counts and 2372 counts
  COL6A3 (NM_004369) expression, Rep 1-3: 5033 counts and 4570 counts and 4303 counts
  CPA4 (NM_016352) expression, Rep 1-3: 51 counts and 62 counts and 45 counts
  CXCL12 (NM_199168) expression, Rep 1-3: 853 counts and 627 counts and 534 counts
  DDAH1 (NM_001134445) expression, Rep 1-3: 136 counts and 155 counts and 107 counts
  DKFZp547J0510 (CDNA FLJ42650 fis, clone BRACE3027478) expression, Rep 1-3: 183 counts and 135 counts and 125 counts
  DUSP1 (NM_004417) expression, Rep 1-3: 825 counts and 1489 counts and 963 counts
  FAM84A (NM_145175) expression, Rep 1-3: 63 counts and 40 counts and 32 counts
  GDF5 (NM_000557) expression, Rep 1-3: 83 counts and 64 counts and 65 counts
  GDF15 (NM_004864) expression, Rep 1-3: 11450 counts and 18978 counts and 10088 counts
  GDNF (NM_000514) expression, Rep 1-3: 689 counts and 845 counts and 824 counts
  GPRC5A (NM_003979) expression, Rep 1-3: 4151 counts and 5981 counts and 3920 counts
  HAS1 (NM_001523) expression, Rep 1-3, second entry: 1355 counts and 730 counts and 789 counts
  HSD11B1 (NM_005525) expression, Rep 1-3: 822 counts and 966 counts and 758 counts
  IDH1 (NM_005896) expression, Rep 1-3: 1920 counts and 2406 counts and 1792 counts
  IER3 (NM_003897) expression, Rep 1-3: 2769 counts and 3595 counts and 2558 counts
  IGFBP1 (NM_000596) expression, Rep 1-3: 5468 counts and 8123 counts and 5321 counts
  IL6 (NM_000600) expression, Rep 1-3: 6490 counts and 8445 counts and 5640 counts
  IL11 (NM_000641) expression, Rep 1-3: 851 counts and 1237 counts and 700 counts
  ISLR (NM_005545) expression, Rep 1-3: 612 counts and 543 counts and 490 counts
  KTN1 (NM_001079522) expression, Rep 1-3: 531 counts and 612 counts and 596 counts
  KYNU (NM_003937) expression, Rep 1-3: 867 counts and 922 counts and 797 counts
  LIPG (NM_006033) expression, Rep 1-3: 1552 counts and 1946 counts and 1607 counts
  MEST (NM_177525) expression, Rep 1-3: 367 counts and 268 counts and 258 counts
  METTL7A (NM_014033) expression, Rep 1-3: 146 counts and 95 counts and 85 counts
  MYLK (NM_053025) expression, Rep 1-3: 0 counts
  NAP1L3 (NM_004538) expression, Rep 1-3: 68 counts and 35 counts and 42 counts
  NGFR (NM_002507) expression, Rep 1-3: 1217 counts and 1818 counts and 1074 counts
  NR4A2 (NM_006186) expression, Rep 1-3: 635 counts and 810 counts and 592 counts
  OLFML1 (NM_198474) expression, Rep 1-3 (Table 4): 177 counts and 128 counts and 114 counts
  PALLD (NM_001166110) expression, Rep 1-3: 1158 counts and 885 counts and 1055 counts
  PAQR5 (NM_017705) expression, Rep 1-3: 703 counts and 745 counts and 664 counts
  PDE4B (NM_001037339) expression, Rep 1-3: 1160 counts and 1371 counts and 1056 counts
  PDE4D (NM_001197221) expression, Rep 1-3: 1130 counts and 1170 counts and 1071 counts
  PDE4D (NM_001197222) expression, Rep 1-3: 1417 counts and 2044 counts and 1570 counts
  PDE5A (NM_033430) expression, Rep 1-3: 174 counts and 286 counts and 206 counts
  PDK4 (NM_002612) expression, Rep 1-3: 1296 counts and 1726 counts and 1173 counts
  PITPNC1 (NM_181671) expression, Rep 1-3: 702 counts and 1007 counts and 764 counts
  PLIN2 (NM_001122) expression, Rep 1-3: 82301 counts and 124225 counts and 72254 counts
  PLOD2 (NM_000935) expression, Rep 1-3: 1169 counts and 1679 counts and 925 counts
  PRELP (NM_002725) expression, Rep 1-3: 159 counts and 104 counts and 80 counts
  PRKAG2 (NM_024429) expression, Rep 1-3: 7233 counts and 8152 counts and 6080 counts
  PTP4A1 (NM_003463) expression, Rep 1-3: 849 counts and 696 counts and 510 counts
  RCAN1 (NM_203418) expression, Rep 1-3: 7766 counts and 11997 counts and 6962 counts
  RCAN2 (NM_001251974) expression, Rep 1-3: 129 counts and 109 counts and 76 counts
  RND3 (NM_005168) expression, Rep 1-3: 48372 counts and 65016 counts and 41881 counts
  S100A4 (NM_002961) expression, Rep 1-3: 149 counts and 114 counts and 113 counts
  SAT1 (transcript variant 2, non-coding RNA) expression, Rep 1-3: 1141 counts and 1529 counts and 954 counts
  SCG2 (NM_003469) expression, Rep 1-3: 1014 counts and 1187 counts and 1069 counts
  SEC31A (NM_001077207) expression, Rep 1-3: 737 counts and 887 counts and 573 counts
  SIK1 (NM_173354) expression, Rep 1-3: 1144 counts and 1320 counts and 1086 counts
  SLC2A12 (NM_145176) expression, Rep 1-3: 110 counts and 114 counts and 92 counts
  SLC3A2 (NM_001013251) expression, Rep 1-3: 31831 counts and 39703 counts and 29042 counts
  SLC6A15 (NM_182767) expression, Rep 1-3: 1201 counts and 1568 counts and 1062 counts
